Measured values published in patent US11274295B2, “Methods for generating pools of variants of a DNA template” (priority 2012, dated 2022).

Legend:
Format in all cases: cell-based
[1] = system: E. coli expressing WT APH(3′)II; experiment: MIC of aminoglycosides in E. coli expressing WT APH(3′)II, immediately following transformation; conditions: Stellar cells transformed with WT pBR322-EM7-neo, LB with carbenicillin 50 μg/mL, 24 hrs, MIC = lowest dilution with A600 < 0.025; for MIC: Escherichia coli, read-out: estimated 1:1 WT MIC
Method: (§1) To determine the minimum inhibitory concentration (MIC) of each of the six aminoglycosides: kanamycin, ribostamycin, G418, amikacin, neomycin, paromomycin (Sigma-Aldrich, St. Louis, Mo.) in E. coli expressing WT APH(3′)II, Stellar cells were transformed with pBR322-EM7-neo, recovered in SOC medium (New England Biolabs (NEB), Ipswich, Mass.) at 37° C. for 1 hr, diluted 1:100 with LB and then divided into 96-well growth blocks containing LB with carbenicillin (50 μg/mL) and 2-fold serial dilutions of aminoglycosides. After growth at 37° C. with shaking for 24 hrs, the culture densities were assessed by absorbance at 600 nm (A600) using a NanoDrop 8000 (Thermo Scientific, Billerica, Mass.).
(§2) The cultures were incubated in 50 mL tubes at 37° C. with shaking for 24 hours, pelleted by centrifugation and frozen at −20° C. Plasmids were isolated from the pellets using QIAprep Spin Miniprep kits (Qiagen). Each transformation and selection was performed in duplicate, using each of the two independently generated mutant libraries.

[2] = system: E. coli transformed with APH(3′)II substitution libraries; experiment: Mutational scanning selection of APH(3′)II substitution libraries in E. coli
Description: To perform mutational scanning in vivo, we cultured E. coli transformed with APH(3′)II substitution libraries in liquid media supplemented with decreasing concentrations of one of six aminoglycoside antibiotics with diverse structures and a wide range of potencies: kanamycin, ribostamycin, G418, amikacin, neomycin or paromomycin (FIG. 3). To normalize the selective pressures induced by the different antibiotics, we first established their minimum inhibitory concentrations (MICs) for E. coli transformed with “wild-type” (WT) APH(3′)II and then used 1:1, 1:2, 1:4 and 1:8 dilutions of WT MICs for the respective library selections. We note that, with the exception of G418 and amikacin, even the 1:8 dilutions were sufficient to inhibit growth of untransformed E. coli. After overnight selection, plasmids were isolated from the surviving cells and their coding regions were shotgun sequenced to compare the amino acid composition of the selected libraries to that of the original input libraries (median coverage=51,400×).
as §2

untransformed e. coli = experiment: Growth inhibition of untransformed E. coli by aminoglycoside; conditions: Table 2 experiment
[3] = system: E. coli transformed with APH(3′)II variants (pBR322[EM7-K1] through pBR322[EM7-K44]); experiment: MIC of aminoglycosides in E. coli carrying synthetic APH(3′)II variants, 2-fold dilution series, A600; conditions: E. coli expressing the APH(3′)II variant, 2-3 independent cultures
Method: as §1
To establish the substrate specificity of the synthetic APH(3′)II variants relative to WT APH(3′)II, glycerol stocks of the relevant clones (pBR322[EM7-K1] through pBR322[EM7-K44]) were streaked onto LB agar plates and cultured overnight at 37° C. Single colonies were then inoculated into 1 mL LB with 50 μg carbenicillin, incubated at 37° C. with shaking for 6 hours, diluted 1:100 into LB media, and then split into 96-well deep well plates containing LB with carbenicillin (50 μg/mL) and 2-fold serial dilutions of aminoglycosides dilution series. We note that the longer recovery in these follow-up experiments increased the absolute MICs compared to those we measured immediately following transformation).

Question: What does the source list for `CN[C@@H]1[C@@H](O)[C@@H](O[C@@H]2[C@@H](O)[C@H](O[C@H]3O[C@H]([C@@H](C)O)[C@@H](O)[C@H](O)[C@H]3N)[C@@H](N)C[C@H]2N)OC[C@]1(C)O` [G418]?
Answer: estimated 1:1 WT MIC [1]: 5 µg/mL; selection pressure ([2]; at its 1:8 WT MIC): did not provide an effective selection pressure

Question: Which results are given for `NCC[C@H](O)C(=O)N[C@@H]1C[C@H](N)[C@@H](O[C@H]2O[C@H](CN)[C@@H](O)[C@H](O)[C@H]2O)[C@H](O)[C@H]1O[C@H]1O[C@H](CO)[C@@H](O)[C@H](N)[C@H]1O` [amikacin]?
Answer: lowest concentration that reliably inhibited growth of untransformed e. coli (untransformed e. coli): (*) 12.5 ug/mL was the lowest amikacin concentration that reliably inhibited growth of untransformed e. coli in this experiment. These estimated MICs therefore reflect total or near total loss of activity on both susbtrates.; MIC [1]: 10 µg/mL; selection pressure ([2]; at its 1:4 and 1:8 WT MICs): did not provide an effective selection pressure

Question: `NC[C@H]1O[C@H](O[C@H]2[C@H](O)[C@@H](O[C@H]3O[C@H](CO)[C@@H](O)[C@H](N)[C@H]3O)[C@H](N)C[C@@H]2N)[C@H](O)[C@@H](O)[C@@H]1O` [kanamycin] was tested. Which MIC [1] did it give?
Answer: The MIC was 225 µg/mL.

Question: Which MIC [1] does the source give for `NC[C@@H]1O[C@H](O[C@H]2[C@@H](O)[C@H](O[C@@H]3[C@@H](O)[C@H](N)C[C@H](N)[C@H]3O[C@H]3O[C@H](CO)[C@@H](O)[C@H](O)[C@H]3N)O[C@@H]2CO)[C@H](N)[C@@H](O)[C@@H]1O` [paromomycin] here?
Answer: Its MIC is 320 µg/mL.

Question: How did the MIC [1] turn out when `NC[C@H]1O[C@H](O[C@H]2[C@H](O[C@@H]3O[C@H](CO)[C@@H](O)[C@H]3O)[C@@H](O)[C@H](N)C[C@@H]2N)[C@H](N)[C@@H](O)[C@@H]1O` [ribostamycin] was run?
Answer: Its MIC is 2500 µg/mL.

Question: Which “estimated 1:1 WT MIC” value [1] does the source give for neomycin here?
Answer: The value was 40 µg/mL.

B1: KKA2_KLEPN_opt_K1: Wild-type aminoglycoside-3′-phosphotransferase-II (APH(3′)II) (protein, UniProt P00552 1-264, looked up)
Aminoglycoside …: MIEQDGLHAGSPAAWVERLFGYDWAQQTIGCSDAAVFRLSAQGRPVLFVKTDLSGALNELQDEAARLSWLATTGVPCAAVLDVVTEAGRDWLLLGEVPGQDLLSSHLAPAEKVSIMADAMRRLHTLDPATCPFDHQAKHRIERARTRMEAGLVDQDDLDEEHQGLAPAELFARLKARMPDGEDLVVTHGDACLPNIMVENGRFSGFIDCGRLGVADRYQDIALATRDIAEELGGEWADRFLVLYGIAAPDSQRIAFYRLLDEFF
modifications: codon-optimized
Question: Which results are given for B1?
Answer: MIC of G418 [3]: 50.00 µg/mL; MIC of amikacin [3]: 25.00 µg/mL; MIC of kanamycin [3]: 2000.00 µg/mL; MIC of neomycin [3]: 400.00 µg/mL; MIC of paromomycin [3]: 4000.00 µg/mL; MIC of ribostamycin [3]: 15000.00 µg/mL
